In patent US10045980B2, “Inhibitor of p38 map kinase” (RESPIVERT LTD, priority 2014, dated 2018):

What was measured:
[1] = tested on: PBMCs; experiment: Cell mitosis assay; format: cell-based; conditions: Homo sapiens, PBMC; At 5 ug/mL; PHA-treated PBMCs, 20 h exposure; Mean ± SEM
Description: Peripheral blood mononucleocytes (PBMCs) from healthy subjects were separated from whole blood (Quintiles, London, UK) using a density gradient (Histopaque-1077, Sigma-Aldrich, Poole, UK). The PBMCs (3 million cells per sample) were subsequently treated with 2% PHA (Sigma-Aldrich, Poole, UK) for 48 h, followed by a 20 h exposure to varying concentrations of test compounds. At 2 h before collection, PBMCs were treated with demecolcine (0.1 μg/mL; Life Technologies, Paisley, UK,) to arrest cells in metaphase.

[2] = tested on: sputum macrophages from COPD patients; experiment: Cytokine production in LPS-treated sputum macrophages from COPD patients; format: cell-based; conditions: Homo sapiens, Macrophage; at 0.1 μg/mL; LPS 1 μg/mL, 18 h; read-out: Percent Inhibition IL-6
Description: Patients with COPD inhaled a nebulised solution of 3% (w/v) hypertonic saline using an ultrasonic nebuliser (Devilbiss, Carthage, Mo.) with tidal breathing for 5 min. This procedure was repeated a maximum of three times until enough sputum was obtained. The sputum samples were homogenized and mixed vigorously using a vortex mixer in 0.02% v/v dithiothreitol (DTT) solution. The samples were re-suspended in PBS (40 mL) followed by centrifugation at 1500 rpm at 4° C. for 10 min to obtain sputum cell pellets. The pellets were washed with PBS (40 mL). […]
Where appropriate, 1 μL of a solution containing either the test compound or reference article at the stated concentrations (either 0.1 μg/mL, 0.01 μg/mL, or 0.001 μg/mL) or alternatively 1 μL of DMSO as the vehicle control was added to each well (200 μL in media) and the cells were incubated for 2 h. […] After washing with 200 μL wash buffer per well, the beads were resuspended in sheath fluid (150 μL) and analyzed immediately. The level of each analyte in the supernatant was calculated using Xcel Fit software with a 4 or 5-parameter equation using each standard curve. The inhibitions of each cytokine production were calculated at each concentration by comparison with vehicle control.

[3] = molecular target: T1, Hck (Homo sapiens, UniProt P08631); experiment: Hck enzyme inhibition (Z-LYTE FRET); format: biochemical
T1 construct: purchased Life Technologies
Description: (§1) The enzyme inhibitory activities of the compound disclosed herein were determined by FRET using synthetic peptides labelled with both donor and acceptor fluorophores (Z-LYTE, Life Technologies, Paisley, UK).
The relevant enzyme (1000 ng/mL, 1400 ng/mL or 2000 ng/mL respectively, 2.5 μL) was incubated with the test compound (either 40 μg/mL, 12 μg/mL, 4 μg/mL, 1.2 μg/mL, 0.4 μg/mL, 0.12 μg/mL, 0.04 μg/mL, 0.012 μg/mL, 0.004 μg/mL or 0.0012 μg/mL, 2.5 μL each) for 2 h at RT. The FRET peptides (8 μM, 2.5 μL), and appropriate ATP solutions (2.5 μL, 800 μM for c-Src, and 60 μM ATP for HCK and Syk) were then added to the enzyme/compound mixtures and incubated for 1 h at RT. Development reagent (protease, 5 μL) was added for 1 h prior to detection in a fluorescence microplate reader (EnVision, Perkin Elmer).
(§2) In all cases, the site-specific protease cleaves non-phosphorylated peptide only and eliminates the FRET signal. Phosphorylation levels of each reaction were calculated using the ratio of coumarin emission (donor) over fluorescein emission (acceptor), for which low ratios indicate high phosphorylation and high ratios indicate low phosphorylation levels.

[4] = molecular target: T2, p38 MAPKα isoform (MAPK14) (Homo sapiens, UniProt Q16539); experiment: p38 MAPKα enzyme inhibition (Z-LYTE FRET); format: biochemical
T2 construct: purchased Life Technologies
Description: as §1
The enzyme (40 ng/mL, 2.5 μL) was incubated with the test compound (2.5 μL of either 40 μg/mL, 12 μg/mL, 4 μg/mL, 1.2 μg/mL, 0.4 μg/mL, 0.12 μg/mL, 0.04 μg/mL, 0.012 μg/mL, 0.004 μg/mL or 0.0012 μg/mL) for 2 h at RT. […] Development reagent (protease, 5 μL) was added for 1 h prior to detection in a fluorescence microplate reader (EnVision, Perkin Elmer, Waltham, Mass., USA).
as §2

T1 sequence (P08631 22-526): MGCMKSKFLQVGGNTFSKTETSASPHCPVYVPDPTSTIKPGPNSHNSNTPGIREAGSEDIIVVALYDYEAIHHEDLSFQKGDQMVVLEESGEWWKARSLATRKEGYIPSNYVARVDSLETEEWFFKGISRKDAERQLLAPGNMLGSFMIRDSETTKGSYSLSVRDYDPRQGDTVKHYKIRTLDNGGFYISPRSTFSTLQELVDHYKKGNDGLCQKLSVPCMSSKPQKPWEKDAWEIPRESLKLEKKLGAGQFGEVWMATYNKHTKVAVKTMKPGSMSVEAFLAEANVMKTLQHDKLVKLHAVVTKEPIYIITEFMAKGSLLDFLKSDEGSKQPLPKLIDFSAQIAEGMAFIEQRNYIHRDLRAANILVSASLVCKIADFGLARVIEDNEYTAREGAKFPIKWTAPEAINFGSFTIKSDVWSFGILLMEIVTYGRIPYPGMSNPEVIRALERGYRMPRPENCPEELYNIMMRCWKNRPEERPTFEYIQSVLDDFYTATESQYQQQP
T2 sequence (Q16539 whole entry, canonical isoform): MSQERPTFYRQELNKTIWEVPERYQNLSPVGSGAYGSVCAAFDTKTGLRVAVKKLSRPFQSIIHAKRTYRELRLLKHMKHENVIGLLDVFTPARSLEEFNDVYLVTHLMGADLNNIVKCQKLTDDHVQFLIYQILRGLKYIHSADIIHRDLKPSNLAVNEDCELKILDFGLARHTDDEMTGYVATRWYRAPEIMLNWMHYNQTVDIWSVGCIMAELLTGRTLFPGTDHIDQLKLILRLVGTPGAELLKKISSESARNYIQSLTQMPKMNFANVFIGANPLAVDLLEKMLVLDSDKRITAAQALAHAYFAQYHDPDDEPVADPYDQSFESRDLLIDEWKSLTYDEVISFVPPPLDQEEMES

Compound: CCc1cncc(Nc2cc(COc3ccc(NC(=O)Nc4cc(C(C)(C)C)nn4-c4ccc(C)cc4)c4ccccc34)ccn2)n1 [Compound of the invention, 1-(3-(tert-butyl)-1-(p-tolyl)-1H-pyrazol-5-yl)-3-(4-((2-((6-ethylpyrazin-2-yl)amino)pyridin-4-yl)methoxy)naphthalen-1-yl)urea]
- inhibition at 5 µg/mL [1]: 18 ± 7%
- inhibition at 0.1 µg/mL [2]: 48 ± 9%
- IC50 [3]: 0.055 µM
- IC50 [4]: 0.026 µM
